Data as given in ChEMBL document CHEMBL1201862, “PubChem BioAssay data set” (2004).
Active and inactive are the calls of the source.

Tests used:
[1] = A Cell Based Secondary Assay To Explore Cytotoxicity of Compounds that Sensitize Mycobacterium Tuberculosis to Beta-Lactam Antibiotics.; type: functional
[2] = molecular target: T1, Calpain-2 catalytic subunit (Sus scrofa, UniProt P43367); test: m-calpain protease blockers, concentration series – biochemical, fluorogenic peptide substrate, dose response (AID 1420); type: functional
T1 sequence (P43367 whole entry): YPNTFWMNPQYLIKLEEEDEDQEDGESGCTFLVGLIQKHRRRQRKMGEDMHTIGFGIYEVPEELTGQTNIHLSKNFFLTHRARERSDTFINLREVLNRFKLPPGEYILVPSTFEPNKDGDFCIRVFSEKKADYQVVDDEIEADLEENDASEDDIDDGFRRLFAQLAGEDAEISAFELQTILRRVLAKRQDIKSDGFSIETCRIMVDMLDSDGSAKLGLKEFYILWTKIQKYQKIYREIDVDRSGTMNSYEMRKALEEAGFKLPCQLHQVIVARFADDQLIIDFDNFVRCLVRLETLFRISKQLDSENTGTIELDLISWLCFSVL

[3] = molecular target: T2, Carboxy-terminal domain RNA polymerase II polypeptide A small phosphatase 1 (Homo sapiens, UniProt Q9GZU7); test: CTDSP1 inhibitors, concentration-response, biochemical, absorbance readout, ultra-high-throughput screen actives (AID 540297); type: functional
T2 sequence (Q9GZU7 whole entry): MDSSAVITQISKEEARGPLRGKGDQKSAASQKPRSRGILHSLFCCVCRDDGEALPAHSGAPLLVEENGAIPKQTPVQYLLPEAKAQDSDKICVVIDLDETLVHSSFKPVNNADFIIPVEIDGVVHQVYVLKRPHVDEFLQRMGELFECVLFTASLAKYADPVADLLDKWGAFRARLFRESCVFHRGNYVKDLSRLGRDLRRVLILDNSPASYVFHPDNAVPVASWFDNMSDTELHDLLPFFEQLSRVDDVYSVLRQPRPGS

[4] = molecular target: DNA dC->dU-editing enzyme APOBEC-3G (Homo sapiens, UniProt Q9HC16); type: functional;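 note: Dose-response counterscreen measuring inhibition of APOBEC3G DNA deaminase activity, run while confirming APOBEC3A inhibitors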
Chain of DNA dC->dU-editing enzyme APOBEC-3G (Q9HC16 whole entry): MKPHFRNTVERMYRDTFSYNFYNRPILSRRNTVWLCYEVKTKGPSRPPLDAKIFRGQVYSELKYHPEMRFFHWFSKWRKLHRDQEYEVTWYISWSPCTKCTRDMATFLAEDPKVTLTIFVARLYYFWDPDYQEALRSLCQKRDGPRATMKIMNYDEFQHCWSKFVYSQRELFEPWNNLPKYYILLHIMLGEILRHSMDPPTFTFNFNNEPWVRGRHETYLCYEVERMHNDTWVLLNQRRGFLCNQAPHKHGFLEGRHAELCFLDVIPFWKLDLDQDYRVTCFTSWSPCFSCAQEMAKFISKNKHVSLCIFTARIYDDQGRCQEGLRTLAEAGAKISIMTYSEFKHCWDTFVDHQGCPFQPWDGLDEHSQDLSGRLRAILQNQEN

[5] = molecular target: DNA dC->dU-editing enzyme APOBEC-3A (Homo sapiens, UniProt P31941); test: Dose Response confirmation of small molecule APOBEC3A DNA Deaminase Inhibitors via a fluorescence-based single-stranded DNA deaminase assay. [Related pubchem assays (depositor defined):AID493011, AID493024]; type: functional
Chain of DNA dC->dU-editing enzyme APOBEC-3A (P31941 whole entry): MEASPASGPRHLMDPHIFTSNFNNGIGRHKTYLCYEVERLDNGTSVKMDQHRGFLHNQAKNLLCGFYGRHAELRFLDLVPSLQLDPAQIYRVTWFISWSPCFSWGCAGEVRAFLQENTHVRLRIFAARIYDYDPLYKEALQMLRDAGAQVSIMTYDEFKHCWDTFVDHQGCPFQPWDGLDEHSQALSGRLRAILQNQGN

[6] = viability of HCT116 lacking mutant beta-catenin – cell-based, human colon tumor, dose response (AID 1045); type: functional;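 note: HCT116 colon tumor cells with beta catenin knocked out; cells exposed to compound for 60 hours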
Protein RecA = molecular target: T3, Protein RecA (Mycobacterium tuberculosis, UniProt P9WHJ3); test: Fluorescence Cell-Free Homogeneous Dose Retest to Identify Inhibitors of RecA-Intein Splicing Activity. [Related pubchem assays (depositor defined):AID2097, AID2223, AID489010, AID492950]; type: functional
T3 sequence (P9WHJ3 whole entry): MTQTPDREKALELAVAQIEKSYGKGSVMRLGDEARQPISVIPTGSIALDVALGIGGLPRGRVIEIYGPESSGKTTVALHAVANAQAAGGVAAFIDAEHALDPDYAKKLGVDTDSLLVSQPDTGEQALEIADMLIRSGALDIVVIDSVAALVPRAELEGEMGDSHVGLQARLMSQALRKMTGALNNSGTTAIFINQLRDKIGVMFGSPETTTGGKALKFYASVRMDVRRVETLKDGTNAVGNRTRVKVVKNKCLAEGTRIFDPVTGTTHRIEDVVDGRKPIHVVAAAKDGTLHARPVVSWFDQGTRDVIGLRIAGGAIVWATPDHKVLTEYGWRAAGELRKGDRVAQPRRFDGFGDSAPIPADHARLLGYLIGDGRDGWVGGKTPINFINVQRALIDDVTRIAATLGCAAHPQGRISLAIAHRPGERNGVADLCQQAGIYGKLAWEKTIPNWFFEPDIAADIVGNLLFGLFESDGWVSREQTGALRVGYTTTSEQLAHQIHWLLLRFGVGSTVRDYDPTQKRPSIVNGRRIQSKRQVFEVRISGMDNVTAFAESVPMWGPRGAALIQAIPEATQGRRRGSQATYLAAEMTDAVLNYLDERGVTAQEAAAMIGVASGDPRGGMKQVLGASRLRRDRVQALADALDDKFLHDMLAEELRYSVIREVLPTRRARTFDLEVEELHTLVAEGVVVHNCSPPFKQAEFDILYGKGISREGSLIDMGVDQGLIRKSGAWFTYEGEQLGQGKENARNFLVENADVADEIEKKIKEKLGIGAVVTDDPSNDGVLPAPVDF

[7] = molecular target: T4, Replicative DNA helicase DnaB (Mycobacterium tuberculosis, UniProt P9WMR3); test: DnaB intein splicing inhibitors, dose response, biochemical, cell-free fluorescence (AID 449749); type: functional
T4 sequence (P9WMR3 whole entry): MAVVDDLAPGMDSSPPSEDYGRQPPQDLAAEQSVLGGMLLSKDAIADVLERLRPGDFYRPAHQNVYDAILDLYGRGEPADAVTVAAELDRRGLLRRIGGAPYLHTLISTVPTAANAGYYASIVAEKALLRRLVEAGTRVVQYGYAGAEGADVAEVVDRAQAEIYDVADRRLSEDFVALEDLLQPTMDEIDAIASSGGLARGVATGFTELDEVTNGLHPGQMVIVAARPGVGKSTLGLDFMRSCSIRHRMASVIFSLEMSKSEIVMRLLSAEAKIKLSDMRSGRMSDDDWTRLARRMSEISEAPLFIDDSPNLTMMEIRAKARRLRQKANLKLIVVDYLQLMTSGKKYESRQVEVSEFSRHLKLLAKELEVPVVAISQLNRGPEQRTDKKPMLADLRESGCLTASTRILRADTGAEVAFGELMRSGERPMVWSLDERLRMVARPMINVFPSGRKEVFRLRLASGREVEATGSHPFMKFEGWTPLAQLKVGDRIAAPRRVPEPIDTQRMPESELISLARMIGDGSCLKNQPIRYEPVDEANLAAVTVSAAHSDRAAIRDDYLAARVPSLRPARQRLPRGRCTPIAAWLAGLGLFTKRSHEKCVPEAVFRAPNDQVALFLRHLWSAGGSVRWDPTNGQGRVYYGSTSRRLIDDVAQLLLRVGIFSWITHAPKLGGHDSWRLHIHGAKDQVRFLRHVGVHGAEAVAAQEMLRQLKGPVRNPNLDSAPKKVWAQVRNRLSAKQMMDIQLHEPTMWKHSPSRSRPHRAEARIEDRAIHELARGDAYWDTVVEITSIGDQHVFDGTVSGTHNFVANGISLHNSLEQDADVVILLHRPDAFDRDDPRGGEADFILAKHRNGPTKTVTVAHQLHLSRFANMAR

[8] = viability of PTEN-deleted HCT116 cells – cell-based, HCT116 PTEN knockout, dose response (AID 1047); type: functional;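 note: HCT116 colon tumor cells with PTEN knocked out; cells exposed to compound for 60 hours before readout; potency for loss of cell viability measured by luminescence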
[9] = DRD fibroblast viability loss – cell-based, non-viral oncogenic, luminescence, dose response (AID 1934); type: functional; conditions: Homo sapiens
BJ [10] = test: BJ-TERT fibroblast viability loss – cell-based, RAS-independent, luminescence, dose response (AID 1933); type: functional; conditions: Homo sapiens
BJ [11] = test: cells; type: functional, cell-based; conditions: Homo sapiens
BJ [12] = test: BJ-TERT-LT-ST fibroblast viability loss – cell-based, RAS-independent, luminescence, dose response (AID 1935); type: functional; conditions: Homo sapiens;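 note: BJ fibroblasts immortalized with TERT plus LT and ST oncogenes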
[13] = molecular target: T5, DNA repair and recombination protein RAD54-like (Homo sapiens, UniProt Q92698); test: RAD54 Holliday junction migration blockers – biochemical, fluorescence, cherry-picked samples, dose series, confirmation (AID 651657); type: functional
T5 sequence (Q92698 whole entry): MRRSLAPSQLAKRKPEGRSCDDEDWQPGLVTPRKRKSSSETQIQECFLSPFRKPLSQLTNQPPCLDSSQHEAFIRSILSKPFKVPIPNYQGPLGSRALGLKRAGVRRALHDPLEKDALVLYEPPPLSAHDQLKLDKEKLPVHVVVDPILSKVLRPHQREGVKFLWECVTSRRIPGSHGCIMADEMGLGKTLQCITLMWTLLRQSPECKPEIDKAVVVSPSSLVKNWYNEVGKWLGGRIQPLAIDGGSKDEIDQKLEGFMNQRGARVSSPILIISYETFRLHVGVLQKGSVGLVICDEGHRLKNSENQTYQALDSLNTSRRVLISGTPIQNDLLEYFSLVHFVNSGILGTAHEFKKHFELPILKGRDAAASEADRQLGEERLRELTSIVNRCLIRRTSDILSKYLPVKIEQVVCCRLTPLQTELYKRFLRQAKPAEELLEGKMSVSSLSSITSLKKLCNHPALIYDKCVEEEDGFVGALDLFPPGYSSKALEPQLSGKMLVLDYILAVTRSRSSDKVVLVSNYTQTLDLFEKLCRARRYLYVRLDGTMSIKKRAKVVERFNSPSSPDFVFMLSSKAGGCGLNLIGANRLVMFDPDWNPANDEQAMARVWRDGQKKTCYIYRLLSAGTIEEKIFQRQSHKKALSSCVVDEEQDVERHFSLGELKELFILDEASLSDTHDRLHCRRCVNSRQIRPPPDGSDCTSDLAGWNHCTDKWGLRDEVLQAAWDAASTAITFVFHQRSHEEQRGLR

[14] = molecular target: T6, DNA repair protein RAD52 homolog (Homo sapiens, UniProt P43351); type: functional, biochemical
T6 sequence (P43351 whole entry): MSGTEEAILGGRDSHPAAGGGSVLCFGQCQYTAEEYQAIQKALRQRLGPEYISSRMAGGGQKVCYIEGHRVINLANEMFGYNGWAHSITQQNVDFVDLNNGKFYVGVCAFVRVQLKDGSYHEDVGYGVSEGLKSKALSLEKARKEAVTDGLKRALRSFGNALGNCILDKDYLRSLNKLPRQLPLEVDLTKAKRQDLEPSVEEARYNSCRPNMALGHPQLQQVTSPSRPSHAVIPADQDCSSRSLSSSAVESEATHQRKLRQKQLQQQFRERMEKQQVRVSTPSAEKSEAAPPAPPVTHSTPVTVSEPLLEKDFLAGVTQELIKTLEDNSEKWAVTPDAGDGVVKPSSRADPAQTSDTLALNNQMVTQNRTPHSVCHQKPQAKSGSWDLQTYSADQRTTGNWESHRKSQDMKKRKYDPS

[15] = tested on: Streptococcus sp. 'group A'; test: Streptococcus pyogenes SK(-)GAS viability under kanamycin – luminescence, BacTiterGlo, confirmation, counter-screen for streptokinase expression inhibitor project, dose response (AID 1900); type: functional, organism-based
Streptokinase A = molecular target: T7, Streptokinase A (Streptococcus pyogenes serotype M1, UniProt P10520); test: viability-normalized secreted streptokinase activity reduction – plasminogen activation absorbance, OD405, dose response (AID 1914); type: functional, Streptococcus pyogenes M1 GAS;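 note: secreted streptokinase activity via plasminogen activation per viability signal from cell pellet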
T7 sequence (P10520 whole entry): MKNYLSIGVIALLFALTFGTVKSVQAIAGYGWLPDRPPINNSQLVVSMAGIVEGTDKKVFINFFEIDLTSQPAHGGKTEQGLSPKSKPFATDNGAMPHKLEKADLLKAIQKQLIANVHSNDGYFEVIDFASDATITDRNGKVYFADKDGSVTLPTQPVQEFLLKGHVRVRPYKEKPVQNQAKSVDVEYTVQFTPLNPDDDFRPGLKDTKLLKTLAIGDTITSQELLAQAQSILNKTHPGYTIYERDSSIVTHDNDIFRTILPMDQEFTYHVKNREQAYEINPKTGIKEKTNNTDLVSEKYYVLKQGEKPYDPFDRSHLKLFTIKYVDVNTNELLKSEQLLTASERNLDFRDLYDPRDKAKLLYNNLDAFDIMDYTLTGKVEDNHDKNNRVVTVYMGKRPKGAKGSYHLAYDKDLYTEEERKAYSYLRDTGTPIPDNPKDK

[16] = Luminescence Cell-Based Dose Retest to Confirm Inhibitors of Cancer Stem Cells. [Related pubchem assays (depositor defined):AID2717, AID2721]; type: functional; conditions: Homo sapiens
Streptococcus = test: GAS UMAA2166 growth inhibition – luminescence, BacTiterGlo, counter-screen for streptokinase expression inhibitor project, dose response (AID 1915); type: functional, organism-based;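 note: potency for reduction of bacterial viability or growth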
[17] = Luminescence-based cell-based high throughput dose response assay to identify activators of the DAF-12 from the parasite S. stercoralis (ssDAF-12).; type: functional

CCN(CC)c1ccc(N/C=C2\C(=O)NC(=O)N(c3ccc(Cl)cc3)C2=O)cc1
CC50 [1]: > 40 µM (active)

COc1ccc(C(=O)C23CC4CC(C2)CC(C(=O)c2ccc(OC)cc2)(C4)C3)cc1
IC50 [2]: < 0.4 µM (not active)

O=C(CSc1nc2sccc2c(=O)[nH]1)N1CCN(c2ccccc2)CC1
IC50 [3]: 10.7 µM (active) | IC50 [4]: 9.27 µM (active) | IC50 [5]: 11.5 µM (active)

Cc1ccc(OCc2nnc(S)n2C2CCCCC2)cc1
IC50 [2]: 38.6 µM (not active)

COc1ccc(N2C(=O)N(Cc3ccc(C)cc3)c3ccccc3S2(=O)=O)cc1
IC50 [2]: 18.5 µM (not active)

O=S(=O)(Cc1ccccc1)c1cnc2ccccc2n1
EC50 [6]: 12.2 µM (active) | EC50 (Protein RecA): 18.3 µM (active) | CC50 [1]: 34 µM (active) | AC50 [7]: > 380 µM (inactive) | EC50 [8]: 14.1 µM (active)

COc1ccc(NC(=O)COc2ccc(/C=C/c3cc[n+](C)cc3)cc2OC)cc1
IC50 [4]: 3.92 µM (active) | IC50 [5]: 3.69 µM (active)

COc1c(F)c(F)c(C(=O)Nc2c(C)cc(Br)cc2C)c(F)c1F
CC50 [1]: 35.6 µM (active)

COc1ccc(/C=C2\N=C(SC)N(c3ccccc3OC)C2=O)cc1
CC50 [1]: 37 µM (active)

CCN1C(=O)/C(=C\c2cn(-c3ccccc3)nc2-c2cccnc2)SC1=S
IC50 [2]: > 50 µM (not active) | EC50 [9]: 17.9 µM (active) | EC50 (BJ [10]): 7.41 µM (inconclusive) | EC50 (BJ [11]): > 150 µM (not active) | EC50 (BJ [12]): > 150 µM (inconclusive)

COc1cccc(-c2cc(NC=O)c3ncc(-c4cccc(C(=O)NCCN(C)C)c4)n3c2)c1
AC50 [13]: 22.3 µM (active) | AC50 [14]: 3.43 µM (active)

C=C(C)C1Cc2c(C)nn(-c3cccc4ccccc34)c2C1 (stereo not drawn)
EC50 [15]: 7.08 µM (active) | EC50 (Streptokinase A): 16.8 µM (active) | AC50 [16]: 6.69 µM (active) | CC50 [1]: > 40 µM (active) | EC50 (Streptococcus): > 150 µM (not active)

Cc1cccn2c(=O)c3cc(C(=O)NC4CCCC4)c(=N)n(CCCN4CCOCC4)c3nc12
AC50 [13]: 21.5 µM (active) | AC50 [14]: 9.37 µM (active)

CCc1noc(C)c1C(=O)Nc1cc(S(=O)(=O)N2CCOCC2)ccc1N1CCN(CC)CC1
IC50 [4]: 5.53 µM (active) | IC50 [5]: 3.46 µM (active)

Cc1ccsc1/C=N/Nc1nc2ccccc2s1
IC50 [17]: > 67.6 µM (inactive)
